Assays:
Test in all cases: KinomeScan profiling
Assay type in all cases: binding
PIK3CA(H1047Y) = target: T1, PIK3CA(H1047Y) (Homo sapiens, UniProt P42336, H1047Y); settings: read-out: % control
T1 construct: purchased KinomeScan® (panel service)
Method in brief: (§1)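 Compounds were screened at 1 μM in DMSO across a 468-kinase KinomeScan panel. Binding was expressed as % control, scaled between a positive control (0%) and DMSO (100%) using luminescence signal. A value under 35% counted as active.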

AXL = target: T2, AXL (Homo sapiens, UniProt P30530); settings: read-out: % control
T2 construct: purchased KinomeScan®
T2 sequence (P30530 26-894): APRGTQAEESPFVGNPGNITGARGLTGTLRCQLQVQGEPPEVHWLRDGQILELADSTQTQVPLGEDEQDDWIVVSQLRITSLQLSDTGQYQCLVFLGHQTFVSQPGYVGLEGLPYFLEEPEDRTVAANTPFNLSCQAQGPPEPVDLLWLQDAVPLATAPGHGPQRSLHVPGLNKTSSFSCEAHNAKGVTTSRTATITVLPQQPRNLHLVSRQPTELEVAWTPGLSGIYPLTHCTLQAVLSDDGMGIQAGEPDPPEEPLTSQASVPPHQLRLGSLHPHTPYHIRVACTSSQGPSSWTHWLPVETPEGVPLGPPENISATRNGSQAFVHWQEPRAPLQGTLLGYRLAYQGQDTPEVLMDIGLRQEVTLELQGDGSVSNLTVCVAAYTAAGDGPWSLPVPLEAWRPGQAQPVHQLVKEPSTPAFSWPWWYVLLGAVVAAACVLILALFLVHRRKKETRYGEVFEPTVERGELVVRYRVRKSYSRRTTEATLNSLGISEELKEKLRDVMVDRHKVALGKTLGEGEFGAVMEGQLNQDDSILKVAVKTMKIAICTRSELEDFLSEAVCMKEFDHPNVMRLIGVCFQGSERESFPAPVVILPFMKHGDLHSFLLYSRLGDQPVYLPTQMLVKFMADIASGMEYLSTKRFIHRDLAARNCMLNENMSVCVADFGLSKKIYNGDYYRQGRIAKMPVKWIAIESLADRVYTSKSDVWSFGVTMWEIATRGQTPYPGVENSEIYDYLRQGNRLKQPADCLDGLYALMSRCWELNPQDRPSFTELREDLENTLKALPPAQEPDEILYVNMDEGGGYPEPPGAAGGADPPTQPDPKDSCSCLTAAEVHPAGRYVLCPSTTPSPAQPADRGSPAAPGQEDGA
Method in brief: as §1

TAOK2 = target: T3, TAOK2 (Homo sapiens, UniProt Q9UL54); settings: TAOK2, 1 μM; read-out: % control
T3 construct: purchased KinomeScan® (panel service)
T3 sequence (Q9UL54 1-1235): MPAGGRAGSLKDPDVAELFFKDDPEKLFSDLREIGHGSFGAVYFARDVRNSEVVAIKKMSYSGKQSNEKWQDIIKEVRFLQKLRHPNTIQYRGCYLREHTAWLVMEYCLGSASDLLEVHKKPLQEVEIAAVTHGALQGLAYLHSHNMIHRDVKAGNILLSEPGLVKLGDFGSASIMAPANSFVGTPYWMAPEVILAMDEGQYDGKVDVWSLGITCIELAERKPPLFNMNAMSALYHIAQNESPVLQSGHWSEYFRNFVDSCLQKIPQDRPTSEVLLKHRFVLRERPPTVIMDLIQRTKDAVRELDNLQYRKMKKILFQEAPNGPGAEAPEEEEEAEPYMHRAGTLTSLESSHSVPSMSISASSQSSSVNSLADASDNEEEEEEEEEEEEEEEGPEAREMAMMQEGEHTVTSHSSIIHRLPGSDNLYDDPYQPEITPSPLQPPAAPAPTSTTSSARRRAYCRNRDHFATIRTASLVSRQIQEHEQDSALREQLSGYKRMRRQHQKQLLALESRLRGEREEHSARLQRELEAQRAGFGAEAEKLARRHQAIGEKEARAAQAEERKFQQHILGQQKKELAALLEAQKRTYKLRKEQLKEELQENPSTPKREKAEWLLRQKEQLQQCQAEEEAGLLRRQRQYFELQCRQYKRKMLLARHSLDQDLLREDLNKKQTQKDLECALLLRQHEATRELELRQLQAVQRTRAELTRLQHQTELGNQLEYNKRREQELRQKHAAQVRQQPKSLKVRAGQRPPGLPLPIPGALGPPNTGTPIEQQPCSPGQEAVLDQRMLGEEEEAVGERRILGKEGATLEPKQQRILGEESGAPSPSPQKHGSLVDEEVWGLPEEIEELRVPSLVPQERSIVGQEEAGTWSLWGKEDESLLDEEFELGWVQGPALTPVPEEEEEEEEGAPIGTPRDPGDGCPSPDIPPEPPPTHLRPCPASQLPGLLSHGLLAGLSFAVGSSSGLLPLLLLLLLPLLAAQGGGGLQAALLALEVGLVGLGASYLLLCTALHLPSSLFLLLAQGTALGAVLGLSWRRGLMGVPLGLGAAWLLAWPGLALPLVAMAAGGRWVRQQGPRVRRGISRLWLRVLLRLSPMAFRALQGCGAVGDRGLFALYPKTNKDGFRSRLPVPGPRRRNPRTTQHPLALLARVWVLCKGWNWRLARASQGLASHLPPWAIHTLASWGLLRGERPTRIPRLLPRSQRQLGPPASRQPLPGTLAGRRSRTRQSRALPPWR
Method in brief: as §1

[1] = target: T4, ABL1(T315I)-nonphosphorylated (Homo sapiens, UniProt P00519, T315I); settings: read-out: % control
T4 construct: purchased KinomeScan®
Method in brief: as §1

T1 sequence (P42336 whole entry H1047Y): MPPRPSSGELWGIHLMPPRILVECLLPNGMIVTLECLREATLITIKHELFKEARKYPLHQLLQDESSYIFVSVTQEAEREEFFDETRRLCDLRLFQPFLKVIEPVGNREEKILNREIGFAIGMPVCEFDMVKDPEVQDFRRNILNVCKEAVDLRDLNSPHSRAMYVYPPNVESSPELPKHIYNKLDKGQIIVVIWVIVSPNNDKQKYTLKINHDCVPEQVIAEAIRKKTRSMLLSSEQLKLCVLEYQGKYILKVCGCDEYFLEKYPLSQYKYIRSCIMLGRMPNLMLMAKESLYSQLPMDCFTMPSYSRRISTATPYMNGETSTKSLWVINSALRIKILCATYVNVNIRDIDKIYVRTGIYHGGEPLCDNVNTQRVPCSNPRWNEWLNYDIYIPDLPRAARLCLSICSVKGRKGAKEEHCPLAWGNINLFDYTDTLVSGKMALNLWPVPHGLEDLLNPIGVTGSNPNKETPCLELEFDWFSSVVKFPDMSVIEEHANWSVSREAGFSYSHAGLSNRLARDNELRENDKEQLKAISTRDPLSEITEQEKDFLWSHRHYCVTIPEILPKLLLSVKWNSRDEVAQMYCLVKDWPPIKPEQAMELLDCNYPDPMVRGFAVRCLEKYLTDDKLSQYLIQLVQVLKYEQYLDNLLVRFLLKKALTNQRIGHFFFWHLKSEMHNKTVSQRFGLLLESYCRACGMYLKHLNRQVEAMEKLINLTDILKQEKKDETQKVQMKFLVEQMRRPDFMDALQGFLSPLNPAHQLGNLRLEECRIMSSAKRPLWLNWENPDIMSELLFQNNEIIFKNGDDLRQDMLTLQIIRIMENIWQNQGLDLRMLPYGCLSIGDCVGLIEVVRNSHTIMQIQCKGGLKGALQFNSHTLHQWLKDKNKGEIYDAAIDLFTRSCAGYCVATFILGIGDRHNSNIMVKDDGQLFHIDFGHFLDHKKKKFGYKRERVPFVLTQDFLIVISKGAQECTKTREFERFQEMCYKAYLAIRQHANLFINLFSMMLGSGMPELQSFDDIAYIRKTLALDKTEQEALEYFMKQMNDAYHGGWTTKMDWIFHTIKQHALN

Compound | remaining binding at 1 µM (PIK3CA(H1047Y)) [%] | remaining binding at 1 µM (AXL) [%] | remaining binding at 1 µM (TAOK2) [%] | remaining binding at 1 µM [1] [%]
O=C(c1ccc(-c2cnc3[nH]cc(Cl)c3c2NC2CCCC2)cc1)N1CCC(N2CCOCC2)CC1 [Compound 101, (4-(3-chloro-4-(cyclopentylamino)-1H-pyrrolo[2,3-b]pyridin-5-yl)phenyl)(4-morpholinopiperidin-1-yl)methanone] | 100 | 40 | 81 | 85
CNc1c(-c2cnn([C@H]3CCN(C(C)=O)C[C@@H]3F)c2)cnc2[nH]cc(Cl)c12 [Compound 77, 1-((3S,4S)-4-(4-(3-chloro-4-(methylamino)-1H-pyrrolo[2,3-b]pyridin-5-yl)-1H-pyrazol-1-yl)-3-fluoropiperidin-1-yl)ethan-1-one] | 70 | 8.5 | 69 | 100
CNc1c(-c2ccc(C(=O)N3CCC(N4CCOCC4)CC3)cc2)cnc2[nH]cc(Cl)c12 [Compound 96, (4-(3-chloro-4-(methylamino)-1H-pyrrolo[2,3-b]pyridin-5-yl)phenyl)(4-morpholinopiperidin-1-yl)methanone] | 84 | 33 | 69 | 100

Reference: patent US12275731B2, “Azaindole inhibitors of wild-type and mutant forms of LRRK2” (DANA-FARBER CANCER INSTITUTE, INC., priority 2018, dated 2025)
